Values quoted from earlier work in patent US20090069345A1, “Pharmaceutically Stable Compound Consisting of Timolol, Dorzolamide and Brimonidine” (priority 2007, published 2009).

How the values were obtained:
eye of a rabbit = conditions: concentrations above those normally used in formulations
[1] = intravenous injection, first 3 hours

Row | Molecule | toxicity to the eye (eye of a rabbit) | dose excreted in urine [1]
1 | Benzalkonium chloride | damaging | 
2 | OC[C@@H](O)[C@@H](O)[C@H](O)[C@H](O)CO [Mannitol] |  | about 80%
